In patent US7138361B2, “Herbicidal heterocycles” (E. I. du Pont de Nemours and Company, priority 2000, dated 2006):

Experiments:
Type in all cases: in vivo
[1] = system: barnyardgrass (Echinochloa crus-galli); experiment: Test C flooded paddy test; details: for Barnyardgrass plant response rating: Flooded Paddy, scale 0 to 100, 0 no effect, 100 complete control; for Plant response rating, Barnyardgrass: flooded paddy test, scale 0 to 100 (0 no effect, 100 complete control)
How it was run: (§1)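 Response on a 0-to-100 scale (no effect to complete control) was assessed by eye versus controls. Plants had reached 2 leaves when treated in flooded paddy conditions. The assessment took place after 12–14 days of greenhouse growth.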

[2] = system: duck salad (Heteranthera limosa); experiment: Test C flooded paddy test; details: for Ducksalad plant response rating: Flooded Paddy, scale 0 to 100, 0 no effect, 100 complete control; for Plant response rating, Ducksalad: flooded paddy test, scale 0 to 100 (0 no effect, 100 complete control)
How it was run: as §1

rice (Oryza saliva) = experiment: Test C flooded paddy test; details: for Rice plant response rating: Flooded Paddy, scale 0 to 100, 0 no effect, 100 complete control; for Plant response rating, Rice: flooded paddy test, scale 0 to 100 (0 no effect, 100 complete control)
How it was run: as §1

Sunflower = experiment: Test C preemergence; details: scale 0 to 100

| SMILES | Barnyardgrass plant response rating ([1]; Rate 250 g/ha) | Barnyardgrass plant response rating ([1]; Rate 500 g/ha) | Plant response rating, Barnyardgrass ([1]; Rate 62 g/ha) | Plant response rating, Barnyardgrass ([1]; Rate 125 g/ha) | Ducksalad plant response rating ([2]; Rate 250 g/ha) | Ducksalad plant response rating ([2]; Rate 500 g/ha) | Plant response rating, Ducksalad ([2]; Rate 62 g/ha) | Plant response rating, Ducksalad ([2]; Rate 125 g/ha) | Rice plant response rating (rice (Oryza saliva); Rate 250 g/ha) | Rice plant response rating (rice (Oryza saliva); Rate 500 g/ha) | Plant response rating, Rice (rice (Oryza saliva); Rate 62 g/ha) | Plant response rating, Sunflower (Sunflower; Rate 31 g/ha) | Plant response rating, Rice (rice (Oryza saliva); Rate 125 g/ha) | Plant response rating, Sunflower (Sunflower; Rate 62 g/ha) |
| --- | --- | --- | --- | --- | --- | --- | --- | --- | --- | --- | --- | --- | --- | --- |
| CC(C)(C)c1ccn(C2CCN(c3cccc(OC(F)(F)F)c3)C2=O)n1 (stereo not shown) [Compound 49] | 100 | 100 | 100 | 100 | 90 | 100 | 50 | 70 | 30 | 90 | 20 | 0 |  |  |
| CC(C)Oc1cccc(N2CCC(n3ccc(C(C)(C)C)n3)C2=O)c1 (stereo not shown) [Compound 70] | 100 | 100 | 60 |  | 100 | 100 | 100 |  | 60 | 90 | 20 | 0 |  |  |
| COC(=O)c1cccc(N2CCC(n3ccc(C(C)(C)C)n3)C2=O)c1 (stereo not shown) [Compound 73] | 100 | 100 | 30 | 70 | 100 | 100 | 70 | 90 | 50 | 60 | 0 | 40 | 20 |  |
| CCC(CC)c1ccn(C2CCN(c3cccc(OC(C)C)c3)C2=O)n1 (stereo not shown) [Compound 84] | 100 | 100 | 80 |  | 100 | 100 | 90 | 90 | 30 | 90 | 0 |  | 0 | 0 |
| CSc1cccc(N2CCC(n3ccc(C(C)(C)C)n3)C2=O)c1 (stereo not shown) [Compound 86] | 100 | 100 | 0 | 30 | 100 |  | 0 | 0 | 0 | 20 | 0 |  | 0 | 0 |
| COc1cccc(N2CCC(n3ccc(C(C)(C)C)n3)C2=O)c1 (stereo not shown) [Compound 87] | 70 | 100 | 0 | 70 | 50 | 100 | 0 | 50 | 20 | 80 | 0 |  | 20 | 20 |
| CC(C)(C)c1ccn(C2CCN(c3cccc(I)c3)C2=O)n1 (stereo not shown) [Compound 88] | 100 | 100 | 30 | 100 | 60 | 60 | 0 | 10 | 30 | 70 | 0 |  | 20 | 10 |
